Reference: patent US11136320B2, “Fused ring derivative used as FGFR4 inhibitor” (JACOBIO PHARMACEUTICALS CO., LTD., priority 2019, dated 2021)

How the values were obtained:
[1] = tested on: Hepatoma cell Hep3B (high expression of FGFR4 and FGF19); experiment: Hepatoma cell proliferation inhibition experiment (MTS method); assay type: cell-based; settings: Homo sapiens, Hep3B; 120 h incubation; read-out: Hep3B(IC50 μM)
From the text: In this experiment, the MTS method was used to test the inhibitory effect of the compounds on the proliferation of Hepatoma cell Hep3B (high expression of FGFR4 and FGF19), and the half inhibitory concentration IC50 of the compounds to Hep3B was obtained. The Hep3B cell line was purchased from ATCC, and the complete culture medium of the Hep3B cell line was MEM+10% FBS+1% PS. MEM cell culture medium, fetal bovine serum, and trypsin were purchased from Gibco, cell culture flasks were purchased from Greiner, and disposable Cell Counting Plate and Taittinger Blue Solution were purchased from Bio-Rad.
(1) 100 μl Hepatoma cell Hep3B suspension was seeded in a 96-well cell culture plate, and the density of each well was 2.0×10^4 cells/ml.
(3) A mixture of MTS (3-(4,5-dimethylthiazol-2-yl)-5-(3-carboxymethoxyphenyl)-2-(4-sulfophenyl)-2H-tetrazolium)/PMS (phenazine methosulfate) was added into each well for coloration, and MTS/PMS in the mixture was at a ratio of 20:1 (ml:ml). 30 μl of the mixture was added into each well of the culture plate above mentioned in step (2), then the culture plate was incubated for 3 h in the incubator.
(5) The inhibition rate was calculated by the […];
(6) According to the inhibition rate of the different concentrations, the IC50 values of the compounds were obtained by curve fitting.

PK analysis of rats = assay type: in vivo; settings: rat, plasma, po, SD rats, p.o. (10 mg/kg)
Procedure: In the present invention, the pharmacokinetics experiment of the compounds in rats was performed using the SD rats (Vitolihua).
(1) Mode of administration: single gavage administration and intravenous injection administration.
(2) Dosage: 10 mg/kg in the gavage administration, 3 mg/kg in the intravenous injection administration.
Gavage administration: before administration, 15 min, 30 min, 1 h, 2 h, 4 h, 6 h, 8 h, 24 h; […]
(§1) (4) Sample processing: 200 μL of orbital blood was collected at each sampling time point. After anticoagulation with heparin, the blood was centrifuged at 5500 rpm for 10 min, and 60 μL of the supernatant was taken and put into the refrigerator at −80° C. for waiting for testing.
Samples obtained after administration of Compound 1 were tested using 4000 LC-MS/MS analyzer, wherein, the chromatographic separation conditions for testing were:
Samples obtained after administration of Compound 7 were tested using 4000 LC-MS/MS analyzer, wherein, the chromatographic separation conditions for testing were:
Samples obtained after administration of Compound 16 were tested using 4000 LC-MS/MS analyzer, wherein, the chromatographic separation conditions for testing were: […]

[2] = PK/PD of NOD-SCID mouse (drug concentration in blood and in tumors); assay type: in vivo; settings: NOD-SCID, mouse, po, 50 mg/kg, p.o. (50 mg/kg); for AUC(0-t): read-out: AUC0-6 h; for concentration at 4 h / concentration at 6 h: tumor
Procedure: This experiment conducted when the pharmacological experiment in vivo was performed by gavage administration, wherein, the blood samples and tumor samples were taken at different time points to detect drug concentration in blood and drug concentrations in tumors.
(1) Mode of administration: gavage administration;
(2) Dosage: 50 mg/kg in the gavage administration;
Three mice were sampled at each sampling point;
as §1, with “Blood sample collection:” for “Sample processing:”, “at” for “at each”, “point for each blood sample.” for “point.”, “mins.” for “min, and”, “put it” for “put”
Tumour sample collection: 200-300 mg of each tumor tissue was taken. The tumor weight was marked, quickly freezed in liquid nitrogen and placed into a refrigerator at −80° C. for waiting for testing.
Tumour sample processing: pure water was added into the tumor sample according to a ratio of […] between the weight of the tumor sample and the volume of pure water and then it was homogenized. The homogenate was stored at −90° C. to −60° C. until the sample was analyzed. After 5 μL of acetonitrile/water (v/v=1:1) was added into 50 μL of tumor sample homogenate, 200 μL of acetonitrile (containing Dexamethasone 100 ng/ml as internal standard, or containing Verapamil 2 ng/ml as internal standard) was added. After protein precipitation, the resulting mixture was vortexed for 2 mins at 4° C. with 4600 g, and then centrifuged for 15 mins to obtain the supernatant. 100 μL of the supernatant was taken and added into 200 μL of deionized water. 5500 LC/MS/MS analyser was used for sample injection and analysis, after vortexing for homogeneity. The conditions for chromatographic separation and mass spectrometric analysis were as follows: […]

Hep3B = experiment: Pharmacodynamic in vivo, Hep3B model tumor growth inhibition; set-up: species or system NOD-SCID mice; settings: 60 mg/kg QD, gavage
From the text: The Hep3B cell line was purchased from ATCC; MEM cell culture medium, fetal bovine serum, and trypsin were purchased from Gibco; cell culture flasks were purchased from Greiner; and disposable Cell Counting Plate and taittinger Blue Solution Purchased from Bio-Rad. The disposable sterile syringe was purchased from Changzhou Jinlong Medical Plastic Instrument Co., Ltd, eye surgical scissors and eye surgical forceps were purchased from Shanghai Medical Instrument (Group) Co., Ltd. Surgical Instrument Factory, and 6-8 week old female NOD-SCID mice were purchased from Vitalivar.
a. One strain of Hep3B cells was taken out from the cell bank and MEM medium (MEM+10% FBS+1% PS) was used to recover the cells. The resuscitated cells were placed in a cell culture flask (the wall the flask was marked with the cell type, date, cultivator's name), and the cell culture flask was placed in a CO2 incubator (the temperature of the incubator was 37° C. and the CO2 concentration of the incubator was 5%);
b. When the cells covered about 90% of the bottom of the culture flask, passage was conducted. the cells were continued to cultivate in a CO2 incubator after passage. The above process was repeated until the number of the cell satisfied the requirements of pharmacodynamic in vivo;
c. The cultured cells were collected and counted using a BIO-Rad TC20 cell counter. According to the counting results, the cultured cells were resuspended with PBS and matrix gel (1:1) to obtain a cell suspension (density 5×10^7/ml), and the cell suspension was placed in an ice box for later use.
a. The cells were mixed well before seeding, and 0.5 ml of cell suspension was taken with a 1 ml syringe and bubbles in the cell suspension were removed. The syringe with the cell suspension was place on an ice pack for later use.
b. The NOD-SCID mice were set with the left hand, and the skin on the right back of the mice was disinfected with 75% alcohol. The inoculation was beginning after 30 seconds.
c. During inoculation, 1 mL syringe was on the right hand, and the cell suspension of Hep3B was inoculated subcutaneously into the right shoulder of the right back of the mouse at 0.1 mL/mouse. At inoculation interval, the syringe was placed on an ice pack and the mice were inoculated sequentially.
d. According to the tumor growth, the tumor was measured and the tumor size was calculated on the 12-15 days after inoculation.
Tumor volume calculation: tumor volume (mm^3)=length (mm)×width (mm)×width (mm)/2
e. When the tumors grew to an average volume of 100-150 mm^3, the mice were randomly divided into two groups according to tumor size and the weight of the mouse. […]
f. […] Tumors were measured and the mice were weighed twice a week after administration. […]

`COCCNc1cc(NC(=O)N2CCCc3cc(CN4CCN(C)CC4=O)c(C=O)nc32)ncc1C#N` [Reference compound, roblitinib, reference compound] showed an IC50 [1] of 0.024 µM, an AUC(0-t) (PK analysis of rats; read-out: Curve area AUC0-24 h) of 1590 ng·h/mL and a Cmax (PK analysis of rats; read-out: Drug concentration in blood Cmax) of 350 ng/mL. It also gave an AUC(0-inf) ([2]; plasma, Hep3B model) of 29100 ng·h/mL, a Cmax ([2]; plasma, Hep3B model) of 6200 ng/mL and a Tmax ([2]; plasma, Hep3B model) of 1 h. The half-life ([2]; plasma, Hep3B model) was 3.13 h, the AUC(0-t) ([2]; plasma, Hep3B model) was 20200 ng·h/mL and the Cmax ([2]; plasma, SNU878 model) was 5430 ng/mL. For the same compound, the Tmax ([2]; plasma, SNU878 model) was 4 h, the AUC(0-t) ([2]; plasma, SNU878 model) was 20400 ng·h/mL and the concentration at 4 h ([2]; Hep3B model) was 64.4 ng/g. It also gave a concentration at 6 h ([2]; Hep3B model) of 44.1 ng/g, a concentration at 4 h ([2]; SNU878 model) of 3560 ng/g and a concentration at 6 h ([2]; SNU878 model) of 1030 ng/g. It also gave a TGI % (Hep3B) of 97.7%.
